Reference: article PMC9822050, “Antiviral Activities of Ethyl Pheophorbides a and b Isolated from Aster pseudoglehnii against Influenza Viruses” (Molecules, 2022)
Values after ≈ are worked out from the molar mass of the structure shown.

Key:
IAV [1] = assay: Time-of-drug-addition assay, viral RNA transcript levels via qRT-PCR; format: cell-based, influenza A virus (PR8-GFP)
IAV [2] = assay: Western blot analysis of IAV HA protein level after time-of-drug-addition treatment; format: cell-based, influenza A virus (PR8-GFP)
HA2 = HA2 (Influenza A virus, UniProt P03452); assay: Hemolysis inhibition assay with chicken red blood cells; conditions: IAV treated with 1 µg/mL, cRBC 2%, pH 5.2
Sequence of HA2 (P03452 344-565 limits assumed): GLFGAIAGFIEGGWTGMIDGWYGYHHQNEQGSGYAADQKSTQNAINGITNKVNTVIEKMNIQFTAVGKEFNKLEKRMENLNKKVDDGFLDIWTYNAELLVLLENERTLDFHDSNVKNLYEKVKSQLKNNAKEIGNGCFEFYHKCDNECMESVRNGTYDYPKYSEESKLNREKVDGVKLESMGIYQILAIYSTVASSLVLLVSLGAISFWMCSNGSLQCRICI
Sequence of HA2 (P03452 18-343 partner limits assumed): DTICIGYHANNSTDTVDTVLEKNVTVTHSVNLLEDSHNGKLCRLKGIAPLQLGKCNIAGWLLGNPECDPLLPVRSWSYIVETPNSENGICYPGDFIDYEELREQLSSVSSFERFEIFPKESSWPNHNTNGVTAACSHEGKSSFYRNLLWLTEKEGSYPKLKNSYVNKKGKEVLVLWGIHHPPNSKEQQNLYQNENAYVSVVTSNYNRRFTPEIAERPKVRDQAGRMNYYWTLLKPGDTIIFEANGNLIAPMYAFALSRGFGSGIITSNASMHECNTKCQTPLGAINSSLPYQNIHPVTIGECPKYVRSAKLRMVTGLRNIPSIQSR

HA1 = HA1 (Influenza A virus, UniProt P03452); assay: Hemagglutination inhibition assay with chicken red blood cells; conditions: IAV treated with 1 µg/mL, cRBC 0.5%
Sequence of HA1 (P03452 18-343 limits assumed): as the sequence (P03452 18-343 partner limits assumed) above
Sequence of HA1 (P03452 344-565 partner limits assumed): as the sequence (P03452 344-565 limits assumed) above

IBV = assay: Plaque reduction assay, IBV; conditions: Influenza B virus, MDCK, read-out: 50% inhibitory concentration (IC50) for IBV, virus pre-treated 1 h at room temperature, MDCK cells, MOI 0.001, plaque assay 48 h after infection
IAV NA = IAV NA (Influenza A virus, UniProt P03468); format: biochemical
Sequence of IAV NA (P03468 whole entry, looked up): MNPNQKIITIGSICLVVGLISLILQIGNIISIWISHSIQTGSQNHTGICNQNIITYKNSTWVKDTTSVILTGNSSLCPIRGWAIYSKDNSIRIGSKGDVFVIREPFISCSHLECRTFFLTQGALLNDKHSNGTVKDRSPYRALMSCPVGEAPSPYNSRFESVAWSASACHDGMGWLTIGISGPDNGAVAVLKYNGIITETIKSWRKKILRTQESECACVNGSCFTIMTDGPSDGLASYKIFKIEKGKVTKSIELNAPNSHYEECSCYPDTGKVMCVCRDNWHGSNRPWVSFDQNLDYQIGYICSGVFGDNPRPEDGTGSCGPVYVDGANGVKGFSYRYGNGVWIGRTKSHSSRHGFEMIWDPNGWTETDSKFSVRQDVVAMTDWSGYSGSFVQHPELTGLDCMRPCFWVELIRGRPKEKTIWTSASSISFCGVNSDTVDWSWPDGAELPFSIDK

IAV [3] = assay: Plaque reduction assay, IAV; format: cell-based, influenza A virus (PR8-GFP); conditions: Influenza A virus, MDCK, virus pre-treated 1 h at room temperature, MDCK cells, MOI 0.01, plaque assay 48 h after infection; read-out: 50% inhibitory concentration (IC50) for IAV
Protocol: All experiments were performed in triplicate.

MDCK cells = assay: Cytotoxicity / MTT assay; format: cell-based, canine; conditions: 48 h, up to a concentration of 10 µg/mL
Protocol: To clarify whether the inhibitory activities of ethyl pheophorbides a and b are mediated through cytotoxicity, MDCK cells were treated with different concentrations of each compound and cell viability was determined after 48 h via the MTT assay (Figure S7).
After a 4 h period, tetrazolium crystals were dissolved with DMSO and absorbance was measured at 560 nm.

adenovirus = assay: Adenovirus plaque assay; conditions: virus pre-treated 1 h at room temperature, 293A cells

SMILES | IAV replication (viral RNA transcript level) (IAV [1]; treatment during virus adsorption to host cells, 1 mM) | IAV HA protein level (IAV [2]; treatment during adsorption, 1 mM, western blot) | hemolysis inhibition (HA2 function) (HA2) | hemagglutination inhibition (HA1 function) (HA1) | IC50 (IBV) [µg/mL] | effect on IAV NA activity (IAV NA) | IAV transcript levels (IAV [1]) | IC50 (IAV [3]) [µg/mL] | expression of IAV HA protein (IAV [2]) | cell viability (MTT) (MDCK cells) | effect against non-enveloped adenovirus (adenovirus)
NC12CC3CC(CC(C3)C1)C2 [Amantadine, reference compound] | marked decrease | marked downregulation | – | – | – | – | – | – | – | – | –
C=CC1=C(C)c2cc3[nH]c(c4c5nc(cc6[nH]c(cc1n2)c(C)c6CC)C(C)=C5C(=O)C4C(=O)OC)C(CCC(=O)OCC)C3C (centres unmarked) [ethyl pheophorbide a] | – | – | no effect | no effect | 1.62 ± 0.86 (≈ 2.61 µM) | no effects | significantly reduced | 0.086 ± 0.072 (≈ 0.139 µM) | significantly suppressed | no adverse effects on cell viability | no effect
C=CC1=C(C)c2cc3[nH]c(c4c5nc(cc6[nH]c(cc1n2)c(C=O)c6CC)C(C)=C5C(=O)C4C(=O)OCC)C(CCC(=O)O)C3C (centres unmarked) [ethyl pheophorbide b] | – | – | no effect | no effect | 3.17 ± 0.94 (≈ 5.11 µM) | no effects | significantly reduced | 0.094 ± 0.058 (≈ 0.151 µM) | significantly suppressed | no adverse effects on cell viability | no effect
